{
  "source": "patent US9078442B2",
  "about": "“Herbicidally and fungicidally active 3-phenylisoxazoline-5-carboxamides and 3-phenylisoxazoline-5-thioamides” (BAYER INTELLECTUAL PROPERTY GMBH, priority 2011, dated 2015)",
  "key": {"[1]": {"system": "Mycosphaerella graminicola", "assay": "In vivo test Mycosphaerella graminicola (wheat)", "settings": "Mycosphaerella graminicola on wheat, evaluation 21-28 days after inoculation", "method": "Wheat plants (cultivar: (Scipion) are cultivated in 50/50 peat pozzolan substrate at 12° C. and sprayed at the 1-leaf stage with the active compound preparation as given in Example A. After 24 hours, the plants are sprayed with a spore suspension of Mycosphaerella graminicola (500 000 spores/ml)."}, "Peronospora parasitica": {"system": "Peronospora parasitica", "assay": "In vivo test Peronospora parasitica (downy mildew on cabbage), protective", "settings": "evaluation 5 days after infection", "method": "In vivo test Peronospora parasitica (downy mildew on cabbage) To prepare an appropriate active compound formulation, the active compound is mixed with acetone/Tween/DMSO and the mixture is diluted with water to the desired concentration. Cabbage plants are cultivated in 50/50 peat/pozzolan soil in small pots at 18-20° C. and sprayed at the cotyledon stage at the respective stated application rates to test for protective activity. Control plants were treated in the same manner, but using an aqueous solution without any active compounds. 24 hours after the spraying, the plants were sprayed with a spore suspension of Peronospora parasitica (50 000 spores/ml). The plants were placed in a cabin at 20° C. in a humid atmosphere for 5 days."}, "Alternaria brassicae": {"system": "Alternaria brassicae", "assay": "In vivo test Alternaria brassicae (salad radish)", "parameters": "concentration or dose not given beside the values", "settings": "Alternaria brassicae on salad radish, application rate not given, evaluation 6-7 days after inoculation", "method": "Salad radish (cultivar Pernot) are cultivated in 50/50 peat pozzolan substrate at 18-20° C. and sprayed at the cotyledon stage with the active compound preparation given above. After 24 hours, the plants are sprayed with a spore suspension of Alternaria brassicae (40 000 spores/cm3). The inoculated plants are placed at 18° C. and in a humid atmosphere for 6-7 days. […] At an application rate of g/ha, the following efficacies are found for the following compounds."}, "Botrytis cinerea": {"system": "Botrytis cinerea", "assay": "In vivo test Botrytis cinerea (gray mold on cucumbers)", "settings": "Botrytis cinerea on cucumber, application rate 1200 g/ha, evaluation 5-7 days after infection", "method": "Cucumber plants (Vert petit de Paris) are cultivated in 50/50 peat pozzolan substrate at 20-25° C. and sprayed at the Z16 stage with the active compound preparation given in Example 1. After 24 hours, the upper sides of the leaves of the plants are sprayed with a spore suspension of Botrytis cinerea (150 000 spores/ml). The spores of a 15-day old culture are collected and suspended in a nutrient solution consisting of • 20 g/l of gelatin; • 50 g/l of D-fructose; • 2 g/l of NH4NO3; • 1 g/L of KH2PO4. The inoculated cucumber plants are placed at 15-11° C. (day/night) and at 80% relative atmospheric humidity for 5-7 days."}},
  "data": [
    {"smiles": "CCn1cc(CNC(=O)C2(C)CC(c3cc(Cl)cc(Cl)c3)=NO2)c(Cl)n1", "note": "(stereo not drawn) [Example 1.339]", "values": [
      {"measurement": "Activity [%] (efficacy)", "setting": "[1]; application rate 500 g/ha", "value": 85, "unit": "%"},
      {"measurement": "Activity [%] (efficacy)", "setting": "Peronospora parasitica; application rate 500 g/ha", "value": 100, "unit": "%"}
    ]},
    {"smiles": "Cc1nn(C)c(C)c1CNC(=O)C1(C)CC(c2cc(Cl)cc(Cl)c2)=NO1", "note": "(stereo not drawn) [Example 1.108]", "values": [
      {"measurement": "Activity [%] (efficacy)", "setting": "Peronospora parasitica; application rate 500 g/ha", "value": 100, "unit": "%"}
    ]},
    {"smiles": "CC(C)n1cc(CNC(=O)C2(C)CC(c3cc(Cl)cc(Cl)c3)=NO2)c(Cl)n1", "note": "(stereo not drawn) [Example 1.343]", "values": [
      {"measurement": "Activity [%] (efficacy)", "setting": "[1]; application rate 500 g/ha", "value": 92, "unit": "%"},
      {"measurement": "Activity [%] (efficacy)", "setting": "Peronospora parasitica; application rate 500 g/ha", "value": 99, "unit": "%"}
    ]},
    {"smiles": "CC(C)(C)OC(=O)CCNC(=O)C1(C)CC(c2cc(Cl)cc(Cl)c2)=NO1", "note": "(stereo not drawn) [Example 6.656]", "values": [
      {"measurement": "Activity [%] (efficacy)", "setting": "[1]; application rate 500 g/ha", "value": 98, "unit": "%"},
      {"measurement": "Activity [%] (efficacy)", "setting": "Peronospora parasitica; application rate 500 g/ha", "value": 92, "unit": "%"}
    ]},
    {"smiles": "CCOCCCNC(=O)C1(C)CC(c2cc(Cl)cc(Cl)c2)=NO1", "note": "(stereo not drawn) [Example 6.681]", "values": [
      {"measurement": "Activity [%] (efficacy)", "setting": "Peronospora parasitica; application rate 1200 g/ha", "value": 97, "unit": "%"}
    ]},
    {"smiles": "Cc1nn(C)cc1CNC(=O)C1(C)CC(c2cc(Cl)cc(Cl)c2)=NO1", "note": "(stereo not drawn) [Example 1.116]", "values": [
      {"measurement": "Activity [%] (efficacy)", "setting": "Peronospora parasitica; application rate 500 g/ha", "value": 100, "unit": "%"}
    ]},
    {"smiles": "CCNC(=O)C1(C)CC(c2cc(C)cc(Cl)c2)=NO1", "note": "(stereo not drawn) [Example 6.412]", "values": [
      {"measurement": "Activity [%] (efficacy)", "setting": "[1]; application rate 500 g/ha", "value": 100, "unit": "%"}
    ]},
    {"smiles": "CCn1cc(CNC(=O)C2(CC)CC(c3cc(Cl)cc(Cl)c3)=NO2)c(C)n1", "note": "(stereo not drawn) [Example 2.163]", "values": [
      {"measurement": "Activity [%] (efficacy)", "setting": "[1]; application rate 500 g/ha", "value": 96, "unit": "%"},
      {"measurement": "Activity [%] (efficacy)", "setting": "Peronospora parasitica; application rate 500 g/ha", "value": 100, "unit": "%"}
    ]},
    {"smiles": "CC1(C(=O)NCc2nc(C3CC3)no2)CC(c2cc(Cl)cc(Cl)c2)=NO1", "note": "(stereo not drawn) [Example 1.352]", "values": [
      {"measurement": "Activity [%] (efficacy)", "setting": "Peronospora parasitica; application rate 500 g/ha", "value": 83, "unit": "%"}
    ]},
    {"smiles": "CC1(C(=O)NCC2CCCCC2)CC(c2cc(Cl)cc(Cl)c2)=NO1", "note": "(stereo not drawn) [Example 6.430]", "values": [
      {"measurement": "Activity [%] (efficacy)", "setting": "[1]; application rate 500 g/ha", "value": 81, "unit": "%"}
    ]},
    {"smiles": "C#CC(C)NC(=O)C1(C)CC(c2cc(Cl)cc(Cl)c2)=NO1", "note": "(single isomer, unassigned) [Example 6.216]", "values": [
      {"measurement": "Activity [%] (efficacy)", "setting": "Peronospora parasitica; application rate 500 g/ha", "value": 75, "unit": "%"},
      {"measurement": "Activity [%] (efficacy)", "setting": "Alternaria brassicae", "value": 82, "unit": "%"}
    ]},
    {"smiles": "CC1(C(=O)NCC2CCCO2)CC(c2cc(Cl)cc(Cl)c2)=NO1", "note": "(mixture of isomers) [Example 6.470]", "values": [
      {"measurement": "Activity [%] (efficacy)", "setting": "[1]; application rate 500 g/ha", "value": 100, "unit": "%"},
      {"measurement": "Activity [%] (efficacy)", "setting": "Peronospora parasitica; application rate 500 g/ha", "value": 71, "unit": "%"}
    ]},
    {"smiles": "CCC1(C(=O)NCC(F)(F)F)CC(c2cc(Cl)cc(Cl)c2)=NO1", "note": "(stereo not drawn) [Example 7.359]", "values": [
      {"measurement": "Activity [%] (efficacy)", "setting": "[1]; application rate 500 g/ha", "value": 100, "unit": "%"},
      {"measurement": "Activity [%] (efficacy)", "setting": "Alternaria brassicae", "value": 86, "unit": "%"}
    ]},
    {"smiles": "CCn1cc(CNC(=O)C2(C)CC(c3cc(C(F)(F)F)cc(C(F)(F)F)c3)=NO2)c(C)n1", "note": "(stereo not drawn) [Example 1.224]", "values": [
      {"measurement": "Activity [%] (efficacy)", "setting": "[1]; application rate 500 g/ha", "value": 95, "unit": "%"},
      {"measurement": "Activity [%] (efficacy)", "setting": "Peronospora parasitica; application rate 500 g/ha", "value": 99, "unit": "%"}
    ]},
    {"smiles": "CC1(C(=O)NCCc2ccccn2)CC(c2cc(Cl)cc(Cl)c2)=NO1", "note": "(stereo not drawn) [Example 1.676]", "values": [
      {"measurement": "Activity [%] (efficacy)", "setting": "Peronospora parasitica; application rate 500 g/ha", "value": 85, "unit": "%"}
    ]},
    {"smiles": "COCC#CC(C)(C)NC(=O)C1(C)CC(c2cc(Cl)cc(Cl)c2)=NO1", "note": "(stereo not drawn) [Example 6.115]", "values": [
      {"measurement": "Activity [%] (efficacy)", "setting": "Peronospora parasitica; application rate 500 g/ha", "value": 100, "unit": "%"}
    ]},
    {"smiles": "CCOC(=O)Cc1ccc(NC(=O)C2(C)CC(c3cc(Cl)cc(Cl)c3)=NO2)cc1", "note": "(stereo not drawn) [Example 1.057]", "values": [
      {"measurement": "Activity [%] (efficacy)", "setting": "[1]; application rate 500 g/ha", "value": 91, "unit": "%"}
    ]},
    {"smiles": "CC(C)n1cc(CNC(=O)C2(C)CC(c3cc(F)cc(F)c3)=NO2)c(Cl)n1", "note": "(stereo not drawn) [Example 1.340]", "values": [
      {"measurement": "Activity [%] (efficacy)", "setting": "[1]; application rate 500 g/ha", "value": 88, "unit": "%"},
      {"measurement": "Activity [%] (efficacy)", "setting": "Peronospora parasitica; application rate 500 g/ha", "value": 97, "unit": "%"}
    ]},
    {"smiles": "CC1(C(=O)NCC(F)(F)F)CC(c2cc(Cl)cc(Cl)c2)=NO1", "note": "(stereo not drawn) [Example 6.377]", "values": [
      {"measurement": "Activity [%] (efficacy)", "setting": "[1]; application rate 500 g/ha", "value": 100, "unit": "%"},
      {"measurement": "Activity [%] (efficacy)", "setting": "Alternaria brassicae", "value": 77, "unit": "%"}
    ]},
    {"smiles": "CCn1cc(NC(=O)C2(C)CC(c3cc(Cl)cc(Cl)c3)=NO2)c(C)n1", "note": "(stereo not drawn) [Example 1.017]", "values": [
      {"measurement": "Activity [%] (efficacy)", "setting": "[1]; application rate 500 g/ha", "value": 88, "unit": "%"}
    ]},
    {"smiles": "CC1(C(=O)NCc2ncccn2)CC(c2cc(Cl)cc(Cl)c2)=NO1", "note": "(stereo not drawn) [Example 1.459]", "values": [
      {"measurement": "Activity [%] (efficacy)", "setting": "[1]; application rate 500 g/ha", "value": 100, "unit": "%"}
    ]},
    {"smiles": "CC1(C(=O)NC2CC2)CC(c2cc(Cl)cc(Br)c2)=NO1", "note": "(stereo not drawn) [Example 6.064]", "values": [
      {"measurement": "Activity [%] (efficacy)", "setting": "[1]; application rate 500 g/ha", "value": 100, "unit": "%"},
      {"measurement": "Activity [%] (efficacy)", "setting": "Alternaria brassicae", "value": 91, "unit": "%"}
    ]},
    {"smiles": "CCOC(=O)CCNC(=O)C1(C)CC(c2cc(Cl)cc(Cl)c2)=NO1", "note": "(stereo not drawn) [Example 6.566]", "values": [
      {"measurement": "Activity [%] (efficacy)", "setting": "[1]; application rate 500 g/ha", "value": 98, "unit": "%"}
    ]},
    {"smiles": "CCC1(C(=O)Nc2cc(C)nn2C)CC(c2cc(Cl)cc(Cl)c2)=NO1", "note": "(stereo not drawn) [Example 2.003]", "values": [
      {"measurement": "Activity [%] (efficacy)", "setting": "Peronospora parasitica; application rate 1200 g/ha", "value": 90, "unit": "%"}
    ]},
    {"smiles": "Cc1cc(Cl)cc(C2=NOC(C)(C(=O)NC3CC3)C2)c1", "note": "(stereo not drawn) [Example 6.072]", "values": [
      {"measurement": "Activity [%] (efficacy)", "setting": "[1]; application rate 500 g/ha", "value": 98, "unit": "%"}
    ]},
    {"smiles": "CCOC(=O)C(C)CNC(=O)C1(C)CC(c2cc(Cl)cc(Cl)c2)=NO1", "note": "(stereo not drawn) [Example 6.480]", "values": [
      {"measurement": "Activity [%] (efficacy)", "setting": "[1]; application rate 500 g/ha", "value": 88, "unit": "%"}
    ]},
    {"smiles": "Cc1c(CNC(=O)C2(C)CC(c3cc(Cl)cc(Cl)c3)=NO2)cnn1C", "note": "(stereo not drawn) [Example 1.138]", "values": [
      {"measurement": "Activity [%] (efficacy)", "setting": "[1]; application rate 500 g/ha", "value": 75, "unit": "%"},
      {"measurement": "Activity [%] (efficacy)", "setting": "Peronospora parasitica; application rate 500 g/ha", "value": 98, "unit": "%"}
    ]},
    {"smiles": "CCC1(C(=O)NC(C)C)CC(c2cc(Cl)cc(Cl)c2)=NO1", "note": "(stereo not drawn) [Example 7.161]", "values": [
      {"measurement": "Activity [%] (efficacy)", "setting": "Botrytis cinerea", "value": 100, "unit": "%"},
      {"measurement": "Activity [%] (efficacy)", "setting": "[1]; application rate 1200 g/ha", "value": 85, "unit": "%"},
      {"measurement": "Activity [%] (efficacy)", "setting": "Peronospora parasitica; application rate 1200 g/ha", "value": 97, "unit": "%"}
    ]}
  ]
}
